The OligoGym collection
Oligonucleotides are written 5' to 3', each unit as a sugar letter and its base; * is a phosphorothioate linkage, no mark a phosphodiester; rarer units and linkages stand in square brackets, end groups in braces. Plain capitals give the bases only. d = 2'-deoxy (DNA); r = 2'-OH (RNA)

Target: UBE2B
Assay: reporter assay of Huesken 2005
Settings: siRNA
Note: test concentration or dose not given here.

| Substance | normalised inhibition (eCFP-eYFP dual reporter) [%] |
| --- | --- |
| sense rGrCrArCrCrArUrCrUrGrArArArArCrArArCrAdTdT / antisense rUrGrUrUrGrUrUrUrUrCrArGrArUrGrGrUrGrCdGdC | 74.2 |
| sense rGrCrGrCrArCrCrArUrCrUrGrArArArArCrArAdTdT / antisense rUrUrGrUrUrUrUrCrArGrArUrGrGrUrGrCrGrCdCdA | 72.8 |
| sense rGrCrUrGrGrArUrGrArArCrCrGrArArUrCrCrUdTdT / antisense rArGrGrArUrUrCrGrGrUrUrCrArUrCrCrArGrCdAdG | 81.5 |
| sense rGrCrUrUrUrArUrCrArGrGrArArArArCrArArAdTdT / antisense rUrUrUrGrUrUrUrUrCrCrUrGrArUrArArArGrCdTdG | 80.4 |
| sense rGrUrArCrUrUrUrUrArArArCrUrArGrUrArArUdTdT / antisense rArUrUrArCrUrArGrUrUrUrArArArArGrUrArCdCdA | 86.2 |
| sense rGrUrArUrGrCrUrGrArUrGrGrUrArGrCrArUrAdTdT / antisense rUrArUrGrCrUrArCrCrArUrCrArGrCrArUrArCdAdC | 75.7 |
| sense rGrUrGrGrArArUrGrCrArGrUrUrArUrArUrUrUdTdT / antisense rArArArUrArUrArArCrUrGrCrArUrUrCrCrArCdTdG | 84.6 |
| sense rGrUrUrUrCrGrGrCrCrArUrUrGrUrUrGrArArCdTdT / antisense rGrUrUrCrArArCrArArUrGrGrCrCrGrArArArCdTdC | 61.6 |
| sense rUrArGrArUrArUrCrCrUrUrCrArGrArArUrCrGdTdT / antisense rCrGrArUrUrCrUrGrArArGrGrArUrArUrCrUrAdAdA | 47.9 |
| sense rUrArGrUrArArUrArGrArArUrUrUrUrCrUrGrAdTdT / antisense rUrCrArGrArArArArUrUrCrUrArUrUrArCrUrAdGdT | 72.3 |
| sense rUrArUrCrCrArArArArUrGrUrUrUrCrArUrCrCdTdT / antisense rGrGrArUrGrArArArCrArUrUrUrUrGrGrArUrAdAdA | 48.2 |
| sense rUrArUrCrUrUrArArCrArUrCrArArUrUrCrArGdTdT / antisense rCrUrGrArArUrUrGrArUrGrUrUrArArGrArUrAdGdA | 50.5 |
| sense rUrArUrGrUrUrUrArGrArUrArUrCrCrUrUrCrAdTdT / antisense rUrGrArArGrGrArUrArUrCrUrArArArCrArUrAdTdG | 63.5 |
| sense rUrCrArGrUrCrUrCrUrGrCrUrGrGrArUrGrArAdTdT / antisense rUrUrCrArUrCrCrArGrCrArGrArGrArCrUrGrAdAdT | 62.4 |
| sense rUrCrCrArArArUrArArArCrCrArCrCrArArCrUdTdT / antisense rArGrUrUrGrGrUrGrGrUrUrUrArUrUrUrGrGrAdTdA | 61.8 |
| sense rUrCrCrUrUrCrArGrArArUrCrGrArUrGrGrArGdTdT / antisense rCrUrCrCrArUrCrGrArUrUrCrUrGrArArGrGrAdTdA | 50 |
| sense rUrCrUrGrArArArArCrArArCrArUrCrArUrGrCdTdT / antisense rGrCrArUrGrArUrGrUrUrGrUrUrUrUrCrArGrAdTdG | 48.3 |
| sense rUrGrCrArGrUrUrArUrArUrUrUrGrGrArCrCrAdTdT / antisense rUrGrGrUrCrCrArArArUrArUrArArCrUrGrCrAdTdT | 81.7 |
| sense rUrGrGrArUrGrArArCrCrGrArArUrCrCrUrArAdTdT / antisense rUrUrArGrGrArUrUrCrGrGrUrUrCrArUrCrCrAdGdC | 74.3 |
| sense rUrUrArArArCrUrArGrUrArArUrArGrArArUrUdTdT / antisense rArArUrUrCrUrArUrUrArCrUrArGrUrUrUrArAdAdA | 46.7 |
| sense rUrUrCrArUrCrCrArArArUrGrUrGrUrArUrGrCdTdT / antisense rGrCrArUrArCrArCrArUrUrUrGrGrArUrGrArAdAdC | 46 |
| sense rUrUrUrCrArArGrCrGrGrUrUrArCrArArGrArGdTdT / antisense rCrUrCrUrUrGrUrArArCrCrGrCrUrUrGrArArAdTdC | 45.5 |
| sense rUrUrUrCrUrGrArArGrArArUrArUrCrCrArArAdTdT / antisense rUrUrUrGrGrArUrArUrUrCrUrUrCrArGrArArAdAdT | 82.5 |
| sense rUrUrUrUrCrUrGrArArGrArArUrArUrCrCrArAdTdT / antisense rUrUrGrGrArUrArUrUrCrUrUrCrArGrArArArAdTdT | 85.3 |

Target: UBE2S
Assay: reporter assay of Huesken 2005
Settings: siRNA

| Substance | normalised inhibition (eCFP-eYFP dual reporter) [%] |
| --- | --- |
| sense rArArCrUrArCrGrArGrGrArGrUrArUrGrCrArGdTdT / antisense rCrUrGrCrArUrArCrUrCrCrUrCrGrUrArGrUrUdCdT | 40 |
| sense rArArGrArUrCrUrUrCrCrArCrCrCrGrArArCrGdTdT / antisense rCrGrUrUrCrGrGrGrUrGrGrArArGrArUrCrUrUdGdG | 60.4 |
| sense rArArGrGrUrCrUrUrUrCrCrCrArArCrGrArGrGdTdT / antisense rCrCrUrCrGrUrUrGrGrGrArArArGrArCrCrUrUdGdA | 53 |
| sense rArCrArCrGrUrArCrUrGrCrUrGrArCrCrArUrCdTdT / antisense rGrArUrGrGrUrCrArGrCrArGrUrArCrGrUrGrUdCdG | 59.3 |
| sense rArCrCrCrCrArUrArUrGrCrUrGrGrArGrGrUrCdTdT / antisense rGrArCrCrUrCrCrArGrCrArUrArUrGrGrGrGrUdCdC | 49.9 |
| sense rArCrCrCrGrArUrGrGrCrArUrCrArArGrGrUrCdTdT / antisense rGrArCrCrUrUrGrArUrGrCrCrArUrCrGrGrGrUdGdG | 66.4 |
| sense rArCrGrArGrGrArGrGrCrGrGrGrCrCrGrCrCrUdTdT / antisense rArGrGrCrGrGrCrCrCrGrCrCrUrCrCrUrCrGrUdTdG | 44.3 |
| sense rArCrGrGrCrUrGrArGrCrUrGrGrGrCrArUrCrCdTdT / antisense rGrGrArUrGrCrCrCrArGrCrUrCrArGrCrCrGrUdCdC | 52.3 |
| sense rArCrUrGrArCrCrGrCrArGrArCrCrCrArCrCrCdTdT / antisense rGrGrGrUrGrGrGrUrCrUrGrCrGrGrUrCrArGrUdGdT | 43.6 |
| sense rArGrCrCrGrGrUrCrGrGrGrCrCrCrUrGrGrCrCdTdT / antisense rGrGrCrCrArGrGrGrCrCrCrGrArCrCrGrGrCrUdTdC | 43 |
| sense rArGrCrUrUrCrCrUrCrCrArCrCrGrArCrCrCrUdTdT / antisense rArGrGrGrUrCrGrGrUrGrGrArGrGrArArGrCrUdTdC | 49.4 |
| sense rArGrGrArCrUrUrCrCrCrUrGrCrCrUrCrCrCrCdTdT / antisense rGrGrGrGrArGrGrCrArGrGrGrArArGrUrCrCrUdTdC | 55.2 |
| sense rArGrGrGrCrCrGrArArGrCrCrGrGrUrCrGrGrGdTdT / antisense rCrCrCrGrArCrCrGrGrCrUrUrCrGrGrCrCrCrUdGdC | 49.1 |
| sense rArGrGrGrGrArCrCrCrCrArUrArUrGrCrUrGrGdTdT / antisense rCrCrArGrCrArUrArUrGrGrGrGrUrCrCrCrCrUdCdA | 36.5 |
| sense rArGrUrArUrGrCrArGrCrUrCrGrGrGrCrCrCrGdTdT / antisense rCrGrGrGrCrCrCrGrArGrCrUrGrCrArUrArCrUdCdC | 49.8 |
| sense rArGrUrGrCrCrUrGrCrUrGrArUrCrCrArCrCrCdTdT / antisense rGrGrGrUrGrGrArUrCrArGrCrArGrGrCrArCrUdTdG | 55.7 |
| sense rArUrCrUrUrCrCrArCrCrCrGrArArCrGrUrGrGdTdT / antisense rCrCrArCrGrUrUrCrGrGrGrUrGrGrArArGrArUdCdT | 31.6 |
| sense rArUrGrCrUrGrGrCrGrArGrCrGrCrGrArUrArAdTdT / antisense rUrUrArUrCrGrCrGrCrUrCrGrCrCrArGrCrArUdGdC | 71.3 |
| sense rArUrGrGrCrArUrCrArArGrGrUrCrUrUrUrCrCdTdT / antisense rGrGrArArArGrArCrCrUrUrGrArUrGrCrCrArUdCdG | 56.5 |
| sense rCrArArGrUrGrCrCrUrGrCrUrGrArUrCrCrArCdTdT / antisense rGrUrGrGrArUrCrArGrCrArGrGrCrArCrUrUrGdAdT | 63.5 |
| sense rCrArCrCrCrArArGrGrGrCrUrArCrUrUrCrCrUdTdT / antisense rArGrGrArArGrUrArGrCrCrCrUrUrGrGrGrUrGdGdG | 81.5 |
| sense rCrCrArCrCrCrArArGrGrGrCrUrArCrUrUrCrCdTdT / antisense rGrGrArArGrUrArGrCrCrCrUrUrGrGrGrUrGrGdGdG | 54.7 |
| sense rCrCrArCrCrCrGrArUrGrGrCrArUrCrArArGrGdTdT / antisense rCrCrUrUrGrArUrGrCrCrArUrCrGrGrGrUrGrGdGdT | 47.2 |
| sense rCrCrCrArArCrGrArGrGrArGrGrArCrCrUrCrAdTdT / antisense rUrGrArGrGrUrCrCrUrCrCrUrCrGrUrUrGrGrGdAdA | 54 |
| sense rCrCrCrGrUrCrUrGrCrUrCrArCrArGrArGrArUdTdT / antisense rArUrCrUrCrUrGrUrGrArGrCrArGrArCrGrGrGdCdC | 70.1 |
| sense rCrCrCrUrGrArGrGrGrGrArCrCrCrCrArUrArUdTdT / antisense rArUrArUrGrGrGrGrUrCrCrCrCrUrCrArGrGrGdCdC | 46.5 |
| sense rCrCrGrArArCrGrUrGrGrGrCrGrCrCrArArUrGdTdT / antisense rCrArUrUrGrGrCrGrCrCrCrArCrGrUrUrCrGrGdGdT | 44.9 |
| sense rCrCrUrGrArGrGrGrGrArCrCrCrCrArUrArUrGdTdT / antisense rCrArUrArUrGrGrGrGrUrCrCrCrCrUrCrArGrGdGdC | 25.2 |
